# pIC50: −log10 of the molar value.
# Molecular target: T1, human PPARγ (Homo sapiens, UniProt P37231)
# T1 construct: 1.6 kb of fragment of the prepared plasmid pGEMT-hPPARg2 including human PPARγ gene; expressed in transfected cells; host or cells: CV-1 cells, transient transfection with pCI-hPPARg2, pCI-hRXRa and the reporter pGL3-PPRE3-TK
# T1 sequence (P37231 1-505): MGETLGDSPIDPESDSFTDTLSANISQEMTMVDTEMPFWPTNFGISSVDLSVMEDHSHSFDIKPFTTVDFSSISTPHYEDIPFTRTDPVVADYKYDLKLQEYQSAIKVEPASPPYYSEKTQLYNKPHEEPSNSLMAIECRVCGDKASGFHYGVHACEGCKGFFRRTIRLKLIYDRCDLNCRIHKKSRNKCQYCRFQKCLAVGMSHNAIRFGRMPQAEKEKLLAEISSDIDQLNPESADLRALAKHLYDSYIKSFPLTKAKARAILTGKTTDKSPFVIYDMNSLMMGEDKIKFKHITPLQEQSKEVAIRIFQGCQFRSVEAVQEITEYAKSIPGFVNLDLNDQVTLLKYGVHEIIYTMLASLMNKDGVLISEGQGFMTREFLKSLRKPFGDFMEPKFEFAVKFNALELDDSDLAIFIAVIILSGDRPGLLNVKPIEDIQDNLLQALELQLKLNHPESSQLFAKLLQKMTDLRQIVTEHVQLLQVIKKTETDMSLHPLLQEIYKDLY
# T1 sequence (P19793 1-462 partner): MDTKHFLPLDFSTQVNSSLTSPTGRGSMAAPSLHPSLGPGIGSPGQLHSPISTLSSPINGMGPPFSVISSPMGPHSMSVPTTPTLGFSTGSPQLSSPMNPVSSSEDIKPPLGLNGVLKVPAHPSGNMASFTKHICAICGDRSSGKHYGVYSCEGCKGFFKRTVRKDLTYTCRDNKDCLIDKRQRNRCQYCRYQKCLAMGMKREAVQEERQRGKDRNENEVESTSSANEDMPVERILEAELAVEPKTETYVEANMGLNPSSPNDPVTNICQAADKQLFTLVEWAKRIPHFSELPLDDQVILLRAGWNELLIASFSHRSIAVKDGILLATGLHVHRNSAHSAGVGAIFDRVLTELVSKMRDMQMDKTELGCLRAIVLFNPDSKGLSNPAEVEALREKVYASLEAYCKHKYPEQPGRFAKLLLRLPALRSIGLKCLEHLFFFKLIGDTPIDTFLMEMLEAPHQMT
# Assay: Human PPARγ antagonist assay (luciferase reporter in transfected CV-1 cells)
# Format: cell-based
# Settings: CV-1 cells expressing human PPARγ and RXRα with reporter plasmid; pioglitazone 1 μM as stimulant; 24 hours; read-out: Human PPARγ antagonist activities, Inhibition IC50
# Protocol: CV-1 cells (96 well plate), where human PPARγ and RXRα has expressed in the transient transfection of reporter plasmid (see reference 5a) were washed once with PBS (100 μL/well), and then supplemented with 100 μL/well […], as well as pioglitazone (not limited to pioglitazone shown as an example, but may be any PPARγ agonist) at a final concentration of 1 μM as a stimulant were added, and incubated in a 5% CO2 incubator at 37° C. for 24 hours. After removing the medium, the CV-1 cells were washed once with PBS (100 μL/well), and supplemented with 60 μL/well of 1× Passive Lysis Buffer (manufactured by Promega Corporation). The CV-1 cells were incubated at room temperature for 30 minutes, stirred, and then by using Dual-Luciferase Reporter Assay System (manufactured by Promega Corporation), luciferase activities of firefly and renilla were measured using 1420 ARVO Multilabel Counter (manufactured by Wallac Oy). Also, the same experiments as that described above were respectively carried out for the cases where only the above-mentioned stimulants (100 nM, 1 μM, 10 μM) were used, where only the above-mentioned test compounds were used, or where neither was used (nonsupplemented), and luciferase activities of firefly and renilla were measured. Values corrected by dividing the firefly luciferase activities by the renilla luciferase activities were calculated as specific activities and used for evaluations.
# Human PPARγ2 antagonist activities of the test compounds were evaluated by using a percentage (inhibition) where the specific activity in case only […] was added is regarded as 0% and the specific activity in case the test compound and the stimulant were not added is regarded as 100%. Moreover, the concentration of the test compound indicating the inhibition rate of 50% was calculated as the IC50 value. Also, human PPARγ2 agonist activities of the test compounds were evaluated by using a percentage (activity) where the specific activity when nonsupplemented is regarded as 0% and the specific activity in case only 10 μM stimulant was added is regarded as 100%, from the specific activity in case only the test compound is used.
# CV-1 cells were cultured in DMEM medium (manufactured by Invitrogen Corporation) including 10% fetal bovine serum (manufactured by Dainippon Pharmaceutical Co., Ltd.) in 225T-Flask (manufactured by Corning Costar). The cells were detached by 0.5 g/L trypsin-0.2 g/L EDTA (ethylene diamine tetra-acetic acid) (manufactured by Invitrogen Corporation), and then suspended in the DMEM medium including 10% fetal bovine serum to a cell concentration of 2×10^5 cells/mL. Thereafter, the cells were seeded into 96 well plate at 2×10^4 cells/0.1 mL/well, incubated in the 5% CO2 incubator at 37° C. overnight, and then the plasmids prepared by the above-mentioned reference 1a, reference 3a, and reference 4a were transfected into cells by using a lipofectamine reagent (manufactured by Invitrogen Corporation) according to the attached manual.
# Namely, after CV-1 cells were cultured overnight, the cells were washed with PBS (100 μL/well). Thereafter the cells were incubated for 5 hours at 37° C./5% CO2 in the MEM medium (manufactured by Invitrogen Corporation) including 430 ng/mL of human PPARγ expression plasmid (pCI-hPPARg2) prepared by the reference 1a, 430 ng/mL of human RXRα expression plasmid (pCI-hRXRa) prepared by the reference 3a, and 140 ng/mL of the reporter plasmid (pGL3-PPRE3-TK) prepared by the reference 4a, 10 ng/mL of phRL-TK vector (manufactured by Promega Corporation) and 2 μL/mL of lipofectamine.
row,pIC50,Compound
1,6.21,"COc1cc(Cn2c3ccccc3c3c(O[C@@H](C)C(=O)O)cccc32)ccc1OCc1nc(-c2ccccc2)oc1C [Example 39, sodium (S)-2-{9-[3-methoxy-4-((5-methyl-2-phenyl-oxazole-4-yl)methoxy)-benzyl]-9H-carbazole-4-yloxy}propionate]"
2,6.51,"COc1cc(Cn2c3ccccc3c3c(O[C@H](C(=O)O)C(C)C)cccc32)ccc1OCc1nc(-c2ccccc2)oc1C [Example 40, sodium (S)-2-{9-[3-methoxy-4-((5-methyl-2-phenyl-oxazole-4-yl)methoxy)-benzyl]-9H-carbazole-4-yloxy}-3-methyl-butyrate]"
3,6.66,"CCC[C@H](Oc1cccc2c1c1ccccc1n2Cc1ccc(OCc2nc(-c3ccccc3)oc2C)c(OC)c1)C(=O)O [Example 41, sodium (S)-2-{9-[3-methoxy-4-((5-methyl-2-phenyl-oxazole-4-yl)methoxy)-benzyl]-9H-carbazole-4-yloxy}valerate]"
4,6.32,"CC[C@@H](Oc1cccc2c1c1ccccc1n2Cc1ccc(OCc2nc(-c3ccccc3)oc2C)c(OC)c1)C(=O)O [Example 42, sodium (R)-2-{9-[3-methoxy-4-((5-methyl-2-phenyl-oxazole-4-yl)methoxy)-benzyl]-9H-carbazole-4-yloxy}butyrate]"
5,6.34,"COc1cc(Cn2c3ccccc3c3c(O[C@@H](C(=O)O)C(C)C)cccc32)ccc1OCc1nc(-c2ccccc2)oc1C [Example 44, sodium (R)-2-{9-[3-methoxy-4-((5-methyl-2-phenyl-oxazole-4-yl)methoxy)-benzyl]-9H-carbazole-4-yloxy}-3-methyl-butyrate]"
6,6.00,"COc1cc(Cn2c3ccccc3c3c(OCc4ccc(C(=O)O)cc4)cccc32)ccc1OCc1nc(-c2ccccc2)oc1C [Example 46, sodium 4-((9-(4-((5-methyl-2-phenyloxazole-4-yl)methoxy)-3-methoxybenzyl)-9H-carbazole-5-yloxy)methyl)benzoate]"
7,7.52,"COc1cc(Cn2c3ccccc3c3c(Oc4ccccc4C(=O)O)cccc32)ccc1OCc1nc(-c2ccccc2)oc1C [Example 47, sodium 2-{9-[3-methoxy-4-((5-methyl-2-phenyloxazole-4-yl)methoxy)-benzyl]-9H-carbazole-4-yloxy}benzoate]"
8,5.60,"COc1cc(Cn2c3ccccc3c3c(Oc4cccc(C(=O)O)c4)cccc32)ccc1OCc1nc(-c2ccccc2)oc1C [Example 48, sodium 3-{9-[3-methoxy-4-((5-methyl-2-phenyloxazole-4-yl)methoxy)-benzyl]-9H-carbazole-4-yloxy}benzoate]"
9,5.98,"COc1cc(Cn2c3ccccc3c3c(Oc4ccc(C(=O)O)cc4)cccc32)ccc1OCc1nc(-c2ccccc2)oc1C [Example 49, sodium 4-{9-[3-methoxy-4-((5-methyl-2-phenyloxazole-4-yl)methoxy)-benzyl]-9H-carbazole-4-yloxy}benzoate]"
